Experiment [1] is described as follows: Sweetness potency at 2% sucrose solution.
Experiment [2] can be described thus: Sweetness potency at 1 mg/mL sucrose solution; weakly bitter.
A short description of experiment [3]: Sweetness potency at 4% sucrose solution.

Our source for the Sweetness potency values is ChEMBL document CHEMBL1126320, “N,N'-disubstituted guanidine high-potency sweeteners” (J Med Chem, 1992).

Consider `N/C(=N\C1CCCCCCC1)NCC(=O)O`, for which the Sweetness potency in experiment [1] worked out at 200.
In turn, `N#Cc1ccc(N/C(=N\CC(=O)O)NC(c2ccccc2)c2ccccc2)cc1` gave a Sweetness potency in experiment [1] of 200000.
For the compound `N/C(=N\CC(=O)O)NCC1CCCCC1`, the Sweetness potency result in experiment [2] was “weakly bitter”.
For the compound `C[C@H](/N=C(\N)NCC(=O)O)c1ccccc1`, the Sweetness potency result in experiment [2] is “weakly bitter”.
Consider `N#Cc1ccc(N/C(=N/CC(=O)O)NC2CCCCCCC2)cc1`, for which, in experiment [1], the Sweetness potency was 170000.
In experiment [1], `C[C@H](/N=C(/NCC(=O)O)Nc1ccc(C#N)cc1)c1ccccc1` registered a Sweetness potency of 28000.
In experiment [3], `N/C(=N\C(c1ccccc1)c1ccccc1)NCC(=O)O` came in with a Sweetness potency of 400.
As for `N#Cc1ccc(N/C(=N\CC(=O)O)NCC2CCCCC2)cc1`, in experiment [1], the Sweetness potency was 35000.
